Measured values: the NIST ThermoML archive (doi:10.1021/acs.jced.6b00399)
Where a name gives a salt, the structure may show the parent alone. ± gives the expanded uncertainty stated by the source.

Key:
[1] = Liquid; for mass density: 101.3 kPa, Pycnometric method; for viscosity: 298.15 K, 101.33 kPa, Capillary tube (Ostwald / Ubbelohde) method
[2] = xn = mol fraction of the nth substance listed; settings: 101.3 kPa, Liquid, x1 = 0.66; for mass density: Pycnometric method

SMILES	mass density ([1]; 293.15 K)	viscosity [1]	mass density ([1]; 303.15 K)	mass density ([1]; 313.15 K)	mass density ([1]; 323.15 K)	mass density ([2]; 293.15 K)	viscosity ([2]; 298.15 K, Capillary tube (Ostwald / Ubbelohde) method)	mass density ([2]; 303.15 K)	mass density ([2]; 313.15 K)	mass density ([2]; 323.15 K)
OC1COCOC1 [1,3-dioxan-5-ol] + OCC1COCO1	–	–	–	–	–	1215.1 ± 2.8 kg/m3	20.05 ± 0.84 mPa·s	1206.7 ± 2.8 kg/m3	1198.2 ± 2.8 kg/m3	1189.7 ± 2.8 kg/m3
CC(=O)OCC(COC(C)=O)OC(C)=O [glyceryl triethanoate]	1158.3 ± 2.5 kg/m3	16.36 ± 0.68 mPa·s	1147.3 ± 2.4 kg/m3	1136.6 ± 2.4 kg/m3	1125.7 ± 2.4 kg/m3	–	–	–	–	–
CC1(C)OCC(CO)O1 (stereo not given) [2,2-dimethyl-1,3-dioxolane-4-methanol]	1067.8 ± 2.4 kg/m3	10.06 ± 0.15 mPa·s	1058.9 ± 2.4 kg/m3	1049.9 ± 2.4 kg/m3	1040.8 ± 2.4 kg/m3	–	–	–	–	–

More lines, now with the values ahead:

mass density ([1]; 293.15 K)	viscosity [1]	mass density ([1]; 303.15 K)	mass density ([1]; 313.15 K)	mass density ([1]; 323.15 K)	mass density ([2]; 293.15 K)	viscosity ([2]; 298.15 K, Capillary tube (Ostwald / Ubbelohde) method)	mass density ([2]; 303.15 K)	mass density ([2]; 313.15 K)	mass density ([2]; 323.15 K)	SMILES
1142.1 ± 3.4 kg/m3	46.55 ± 1.2 mPa·s	1134.1 ± 3.3 kg/m3	1124.2 ± 3.3 kg/m3	1112.9 ± 3.3 kg/m3	–	–	–	–	–	CCOC(=O)CC(CC(=O)OCC)(OC(C)=O)C(=O)OCC [triethyl acetyl citrate]
1137.1 ± 2.6 kg/m3	32.1 ± 0.64 mPa·s	1131.3 ± 2.6 kg/m3	1122.4 ± 2.6 kg/m3	1114 ± 2.5 kg/m3	–	–	–	–	–	CCOC(=O)CC(O)(CC(=O)OCC)C(=O)OCC [triethyl citrate]
